Source: ChEMBL document CHEMBL1909602, “Design and synthesis of novel triazole antifungal derivatives by structure-based bioisosterism” (Eur J Med Chem, 2011)
Values after ≈ are worked out from the molar mass of the structure shown.

Assays:
Cryptococcus neoformans = test: Antifungal activity against Cryptococcus neoformans 32609 after 72 hrs by serial dilution method; format: functional; details: Cryptococcus neoformans, 32609, 72 h
Candida parapsilosis = test: Antifungal activity against Candida parapsilosis ATCC 22019 after 24 hrs by serial dilution method; format: functional; details: Lodderomyces parapsilosis, ATCC 22019, 24 h
Aspergillus fumigatus = test: Antifungal activity against Aspergillus fumigatus 7544 after 7 days by serial dilution method; format: functional; details: Aspergillus fumigatus, 7544, 168 h
[1] = Hydrophobicity, Log P of the compound; format: physicochemical; details: octanol/water
Candida tropicalis = test: Antifungal activity against Candida tropicalis 087 after 24 hrs by serial dilution method; format: functional; details: Candida tropicalis, 087, 24 h
Pichia kudriavzevii = test: Antifungal activity against Candida krusei ATCC 6258 after 24 hrs by serial dilution method; format: functional; details: ATCC 6258, 24 h
Candida albicans = test: Antifungal activity against Candida albicans Y0109 after 24 hrs by serial dilution method; format: functional; details: Y0109, 24 h

## O=c1n(-c2ccccc2F)cnn1CCCN1CCN(CC(O)(Cn2cncn2)c2ccc(F)cc2F)CC1 (racemic)
Cryptococcus neoformans
  MIC80: > 64 µg/mL
Candida parapsilosis
  MIC80: 1 µg/mL (≈ 1.84 µM)
Aspergillus fumigatus
  MIC80: > 64 µg/mL
[1]
  logP: 2.02
Candida tropicalis
  MIC80: 1 µg/mL (≈ 1.84 µM)
Pichia kudriavzevii
  MIC80: > 64 µg/mL
Candida albicans
  MIC80: 0.25 µg/mL (≈ 0.461 µM)

## Cc1ccc(-n2cnn(CCCN3CCN(CC(O)(Cn4cncn4)c4ccc(F)cc4F)CC3)c2=O)cc1 (racemic)
Cryptococcus neoformans
  MIC80: 8 µg/mL (≈ 14.9 µM)
Candida parapsilosis
  MIC80: 1 µg/mL (≈ 1.86 µM)
Aspergillus fumigatus
  MIC80: > 64 µg/mL
[1]
  logP: 2.28
Candida tropicalis
  MIC80: 0.25 µg/mL (≈ 0.464 µM)
Pichia kudriavzevii
  MIC80: 1 µg/mL (≈ 1.86 µM)
Candida albicans
  MIC80: 0.25 µg/mL (≈ 0.464 µM)

## Cc1cccc(-n2cnn(CCCN3CCN(CC(O)(Cn4cncn4)c4ccc(F)cc4F)CC3)c2=O)c1 (racemic)
Cryptococcus neoformans
  MIC80: 8 µg/mL (≈ 14.9 µM)
Candida parapsilosis
  MIC80: 1 µg/mL (≈ 1.86 µM)
Aspergillus fumigatus
  MIC80: 8 µg/mL (≈ 14.9 µM)
[1]
  logP: 2.28
Candida tropicalis
  MIC80: 0.25 µg/mL (≈ 0.464 µM)
Pichia kudriavzevii
  MIC80: 1 µg/mL (≈ 1.86 µM)
Candida albicans
  MIC80: 0.25 µg/mL (≈ 0.464 µM)

## O=c1n(-c2ccccc2)cnn1CCCN1CCN(CC(O)(Cn2cncn2)c2ccc(F)cc2F)CC1 (racemic)
Cryptococcus neoformans
  MIC80: 8 µg/mL (≈ 15.3 µM)
Candida parapsilosis
  MIC80: 1 µg/mL (≈ 1.91 µM)
Aspergillus fumigatus
  MIC80: > 64 µg/mL
[1]
  logP: 1.92
Candida tropicalis
  MIC80: 1 µg/mL (≈ 1.91 µM)
Pichia kudriavzevii
  MIC80: 1 µg/mL (≈ 1.91 µM)
Candida albicans
  MIC80: 0.25 µg/mL (≈ 0.477 µM)

## CC(C)(C)c1ccc(-n2cnn(CCCN3CCN(CC(O)(Cn4cncn4)c4ccc(F)cc4F)CC3)c2=O)cc1 (racemic)
Cryptococcus neoformans
  MIC80: 1 µg/mL (≈ 1.72 µM)
Candida parapsilosis
  MIC80: 0.25 µg/mL (≈ 0.431 µM)
Aspergillus fumigatus
  MIC80: 1 µg/mL (≈ 1.72 µM)
[1]
  logP: 3.59
Candida tropicalis
  MIC80: 0.25 µg/mL (≈ 0.431 µM)
Pichia kudriavzevii
  MIC80: 0.25 µg/mL (≈ 0.431 µM)
Candida albicans
  MIC80: 0.25 µg/mL (≈ 0.431 µM)

## Cc1ccc(-n2cnn(CCCN3CCN(CC(O)(Cn4cncn4)c4ccc(F)cc4F)CC3)c2=O)c(C)c1 (racemic)
Cryptococcus neoformans
  MIC80: 8 µg/mL (≈ 14.5 µM)
Candida parapsilosis
  MIC80: 1 µg/mL (≈ 1.81 µM)
Aspergillus fumigatus
  MIC80: > 64 µg/mL
[1]
  logP: 2.65
Candida tropicalis
  MIC80: 1 µg/mL (≈ 1.81 µM)
Pichia kudriavzevii
  MIC80: 1 µg/mL (≈ 1.81 µM)
Candida albicans
  MIC80: 1 µg/mL (≈ 1.81 µM)

## Cc1ccc(-n2cnn(CCCN3CCN(CC(O)(Cn4cncn4)c4ccc(F)cc4F)CC3)c2=O)cc1C (racemic)
Cryptococcus neoformans
  MIC80: 4 µg/mL (≈ 7.24 µM)
Candida parapsilosis
  MIC80: 0.25 µg/mL (≈ 0.452 µM)
Aspergillus fumigatus
  MIC80: 8 µg/mL (≈ 14.5 µM)
[1]
  logP: 2.65
Candida tropicalis
  MIC80: 0.25 µg/mL (≈ 0.452 µM)
Pichia kudriavzevii
  MIC80: 1 µg/mL (≈ 1.81 µM)
Candida albicans
  MIC80: 0.25 µg/mL (≈ 0.452 µM)

## Cc1cc(C)cc(-n2cnn(CCCN3CCN(CC(O)(Cn4cncn4)c4ccc(F)cc4F)CC3)c2=O)c1 (racemic)
Cryptococcus neoformans
  MIC80: 4 µg/mL (≈ 7.24 µM)
Candida parapsilosis
  MIC80: 1 µg/mL (≈ 1.81 µM)
Aspergillus fumigatus
  MIC80: 8 µg/mL (≈ 14.5 µM)
[1]
  logP: 2.65
Candida tropicalis
  MIC80: 0.25 µg/mL (≈ 0.452 µM)
Pichia kudriavzevii
  MIC80: 1 µg/mL (≈ 1.81 µM)
Candida albicans
  MIC80: 0.25 µg/mL (≈ 0.452 µM)

## O=c1n(-c2cccc(Cl)c2)cnn1CCCN1CCN(CC(O)(Cn2cncn2)c2ccc(F)cc2F)CC1 (racemic)
Cryptococcus neoformans
  MIC80: 4 µg/mL (≈ 7.16 µM)
Candida parapsilosis
  MIC80: 0.25 µg/mL (≈ 0.447 µM)
Aspergillus fumigatus
  MIC80: 16 µg/mL (≈ 28.6 µM)
[1]
  logP: 2.54
Candida tropicalis
  MIC80: 0.0625 µg/mL (≈ 0.112 µM)
Pichia kudriavzevii
  MIC80: > 64 µg/mL
Candida albicans
  MIC80: 0.0625 µg/mL (≈ 0.112 µM)

## O=c1n(-c2ccc(Cl)cc2)cnn1CCCN1CCN(CC(O)(Cn2cncn2)c2ccc(F)cc2F)CC1 (racemic)
Cryptococcus neoformans
  MIC80: 4 µg/mL (≈ 7.16 µM)
Candida parapsilosis
  MIC80: 0.25 µg/mL (≈ 0.447 µM)
Aspergillus fumigatus
  MIC80: 8 µg/mL (≈ 14.3 µM)
[1]
  logP: 2.54
Candida tropicalis
  MIC80: 0.25 µg/mL (≈ 0.447 µM)
Pichia kudriavzevii
  MIC80: 0.25 µg/mL (≈ 0.447 µM)
Candida albicans
  MIC80: 0.0625 µg/mL (≈ 0.112 µM)

## O=c1n(-c2ccc(Cl)c(Cl)c2)cnn1CCCN1CCN(CC(O)(Cn2cncn2)c2ccc(F)cc2F)CC1 (racemic)
Cryptococcus neoformans
  MIC80: 1 µg/mL (≈ 1.69 µM)
Candida parapsilosis
  MIC80: 0.25 µg/mL (≈ 0.421 µM)
Aspergillus fumigatus
  MIC80: 4 µg/mL (≈ 6.74 µM)
[1]
  logP: 3.17
Candida tropicalis
  MIC80: 0.0625 µg/mL (≈ 0.105 µM)
Pichia kudriavzevii
  MIC80: 0.25 µg/mL (≈ 0.421 µM)
Candida albicans
  MIC80: 0.0625 µg/mL (≈ 0.105 µM)

## O=c1n(-c2ccc(Br)cc2)cnn1CCCN1CCN(CC(O)(Cn2cncn2)c2ccc(F)cc2F)CC1 (racemic)
Cryptococcus neoformans
  MIC80: 4 µg/mL (≈ 6.63 µM)
Candida parapsilosis
  MIC80: 0.25 µg/mL (≈ 0.414 µM)
Aspergillus fumigatus
  MIC80: 8 µg/mL (≈ 13.3 µM)
[1]
  logP: 2.61
Candida tropicalis
  MIC80: 0.25 µg/mL (≈ 0.414 µM)
Pichia kudriavzevii
  MIC80: 1 µg/mL (≈ 1.66 µM)
Candida albicans
  MIC80: 0.25 µg/mL (≈ 0.414 µM)

## O=c1n(-c2ccc(F)cc2)cnn1CCCN1CCN(CC(O)(Cn2cncn2)c2ccc(F)cc2F)CC1 (racemic)
Cryptococcus neoformans
  MIC80: > 64 µg/mL
Candida parapsilosis
  MIC80: 1 µg/mL (≈ 1.84 µM)
Aspergillus fumigatus
  MIC80: > 64 µg/mL
[1]
  logP: 2.02
Candida tropicalis
  MIC80: 0.25 µg/mL (≈ 0.461 µM)
Pichia kudriavzevii
  MIC80: > 64 µg/mL
Candida albicans
  MIC80: 0.25 µg/mL (≈ 0.461 µM)

## O=c1n(-c2ccc(I)cc2)cnn1CCCN1CCN(CC(O)(Cn2cncn2)c2ccc(F)cc2F)CC1 (racemic)
Cryptococcus neoformans
  MIC80: 4 µg/mL (≈ 6.15 µM)
Candida parapsilosis
  MIC80: 0.25 µg/mL (≈ 0.384 µM)
Aspergillus fumigatus
  MIC80: 8 µg/mL (≈ 12.3 µM)
[1]
  logP: 2.57
Candida tropicalis
  MIC80: 0.25 µg/mL (≈ 0.384 µM)
Pichia kudriavzevii
  MIC80: 0.25 µg/mL (≈ 0.384 µM)
Candida albicans
  MIC80: 0.25 µg/mL (≈ 0.384 µM)

## CCOc1ccc(-n2cnn(CCCN3CCN(CC(O)(Cn4cncn4)c4ccc(F)cc4F)CC3)c2=O)cc1 (racemic)
Cryptococcus neoformans
  MIC80: 8 µg/mL (≈ 14.1 µM)
Candida parapsilosis
  MIC80: 1 µg/mL (≈ 1.76 µM)
Aspergillus fumigatus
  MIC80: > 64 µg/mL
[1]
  logP: 2.25
Candida tropicalis
  MIC80: 1 µg/mL (≈ 1.76 µM)
Pichia kudriavzevii
  MIC80: 1 µg/mL (≈ 1.76 µM)
Candida albicans
  MIC80: 0.25 µg/mL (≈ 0.44 µM)

## Cc1ccc(-n2cnn(CCCN3CCN(CC(O)(Cn4cncn4)c4ccc(F)cc4F)CC3)c2=O)cc1Cl (racemic)
Cryptococcus neoformans
  MIC80: 1 µg/mL (≈ 1.75 µM)
Candida parapsilosis
  MIC80: 0.25 µg/mL (≈ 0.436 µM)
Aspergillus fumigatus
  MIC80: 4 µg/mL (≈ 6.98 µM)
[1]
  logP: 2.91
Candida tropicalis
  MIC80: 0.25 µg/mL (≈ 0.436 µM)
Pichia kudriavzevii
  MIC80: 0.25 µg/mL (≈ 0.436 µM)
Candida albicans
  MIC80: 0.0625 µg/mL (≈ 0.109 µM)

## O=c1n(-c2ccc(F)c(Cl)c2)cnn1CCCN1CCN(CC(O)(Cn2cncn2)c2ccc(F)cc2F)CC1 (racemic)
Cryptococcus neoformans
  MIC80: 1 µg/mL (≈ 1.73 µM)
Candida parapsilosis
  MIC80: 0.25 µg/mL (≈ 0.433 µM)
Aspergillus fumigatus
  MIC80: 4 µg/mL (≈ 6.93 µM)
[1]
  logP: 2.65
Candida tropicalis
  MIC80: 0.0625 µg/mL (≈ 0.108 µM)
Pichia kudriavzevii
  MIC80: 0.25 µg/mL (≈ 0.433 µM)
Candida albicans
  MIC80: 0.0625 µg/mL (≈ 0.108 µM)

## Cc1ccc(C)c(-n2cnn(CCCN3CCN(CC(O)(Cn4cncn4)c4ccc(F)cc4F)CC3)c2=O)c1 (racemic)
Cryptococcus neoformans
  MIC80: 8 µg/mL (≈ 14.5 µM)
Candida parapsilosis
  MIC80: 1 µg/mL (≈ 1.81 µM)
Aspergillus fumigatus
  MIC80: > 64 µg/mL
[1]
  logP: 2.65
Candida tropicalis
  MIC80: 0.25 µg/mL (≈ 0.452 µM)
Pichia kudriavzevii
  MIC80: 1 µg/mL (≈ 1.81 µM)
Candida albicans
  MIC80: 0.25 µg/mL (≈ 0.452 µM)

## Cc1cccc(C)c1-n1cnn(CCCN2CCN(CC(O)(Cn3cncn3)c3ccc(F)cc3F)CC2)c1=O (racemic)
Cryptococcus neoformans
  MIC80: > 64 µg/mL
Candida parapsilosis
  MIC80: 4 µg/mL (≈ 7.24 µM)
Aspergillus fumigatus
  MIC80: > 64 µg/mL
[1]
  logP: 2.65
Candida tropicalis
  MIC80: 0.25 µg/mL (≈ 0.452 µM)
Pichia kudriavzevii
  MIC80: 1 µg/mL (≈ 1.81 µM)
Candida albicans
  MIC80: 1 µg/mL (≈ 1.81 µM)

## Cc1ccc(-n2cnn(CCCN3CCN(CC(O)(Cn4cncn4)c4ccc(F)cc4F)CC3)c2=O)cc1[N+](=O)[O-] (racemic)
Cryptococcus neoformans
  MIC80: 16 µg/mL (≈ 27.4 µM)
Candida parapsilosis
  MIC80: 1 µg/mL (≈ 1.71 µM)
Aspergillus fumigatus
  MIC80: > 64 µg/mL
[1]
  logP: 2.11
Candida tropicalis
  MIC80: 0.25 µg/mL (≈ 0.428 µM)
Pichia kudriavzevii
  MIC80: > 64 µg/mL
Candida albicans
  MIC80: 0.25 µg/mL (≈ 0.428 µM)

## OC(Cn1cncn1)(Cn1cncn1)c1ccc(F)cc1F [FLUCONAZOLE]
Cryptococcus neoformans
  MIC80: 16 µg/mL (≈ 52.2 µM)
Candida parapsilosis
  MIC80: 1 µg/mL (≈ 3.27 µM)
Aspergillus fumigatus
  MIC80: > 64 µg/mL
Candida tropicalis
  MIC80: 0.0625 µg/mL (≈ 0.204 µM)
Pichia kudriavzevii
  MIC80: 0.25 µg/mL (≈ 0.816 µM)
Candida albicans
  MIC80: 0.25 µg/mL (≈ 0.816 µM)
